Measured values reported in patent US20230027361A1, “METTL3 MODULATORS” (priority 2019, published 2023).

What follows are compounds tested on MOLM-13 cells (assay: MOLM-13 96 Hour Cell Proliferation Assay). Conditions: Homo sapiens, MOLM-13, 96 h.
Assay type: cell-based
Method: MOLM-13 (DSMZ) cells were seeded at 600 cells per well in a volume of 44 μL in a Greiner Bio-One CELLSTAR™ 384 Well Polystyrene Cell Culture clear bottom microplate in RPMI 1640 media containing 10% fetal bovine serum using a Multidrop Combi (ThermoFisher Scientific). Cells were incubated overnight at 37° C. in a humidified tissue culture incubator. To prevent evaporation or to reduce edge effect, add 50 μL or more H2O to an empty plate, cover, and place on top of the cell plates. The Mosquito® HTS Liquid Handler was used to make a compound/media intermediate plate by aliquoting 1 μL of compound from the initial compound dilution plate (concentrations ranging from 10.0 mM to 38.0 nM in 100% DMSO) into Bio-One 384-well polypropylene conical bottom microplate containing 49 μL of media containing the appropriate serum (50-fold dilution, 2% DMSO, compound concentrations ranging from 200.0 μM and […]). The Apricot liquid handling system was used to transfer 6.2 μL compounds from the intermediate plate into the seeding plate containing 44 μL cells (8-fold dilution spanning concentrations 25.0 μM to […], 0.25% DMSO final), and placed in a humidified tissue culture incubator at 37° C. After 96 hours, 25 μL of Cell Titer-Glo reagent (Promega) was added to each well using an Integra liquid handling system. The plate was protected from light using TopSeal-A (Black) film over the entire plate, added White Bottom seal film on the bottom of the entire plate for a better reading on the Envision, and placed on an IKA plate shaker for at 300 rpm for 10 minutes at room temperature. The plate was read on an EnVision plate reader (Perkin Elmer) using the Ultra Sensitive Luminescence protocol. Data analysis was performed by normalizing the raw luminescence units to an average of the positive control values for staurosporine (100% cell death) and the negative control values for DMSO (0% cell death). An IC50 was calculated using a 4-parameter logistic nonlinear regression model in GraphPad Prism.
CNc1ccc2ccc(CC[C@H]3C[C@@H](n4ccc5c(N)ncnc54)[C@H](O)[C@@H]3O)cc2n1 [I-123] was tested, and the IC50 was < 1000 nM.
Nc1ncnc2c1c(CO)cn2[C@@H]1O[C@H](COc2ccc3ccc(N4CCC4)nc3c2)[C@@H](O)[C@@H]1F [I-163] was tested, and the IC50 was 1000 to 10000 nM.
Compound Nc1ncnc2c1ccn2[C@H]1C[C@H](O)[C@@H](COc2ccc3ccc(N4CCC4)nc3c2)O1 [I-165] has an IC50 of 1000 to 10000 nM.
For Nc1ncnc2c1ccn2[C@H]1C[C@H](O)[C@@H](COc2ccc3ccc(NC4CC4)nc3c2)O1 [I-180], the IC50 was > 10000 nM.

The compounds below were run against METTL3/METTL14 (Homo sapiens, UniProt Q86U44) (assay: METTL3-14 Standard Enzyme Assay (METTL3 biochemical assay)). Conditions: METTL3 biochemical assay; read-out: METTL3 IC50.
Sequence of METTL3/METTL14 (Q86U44 whole entry, species assumed): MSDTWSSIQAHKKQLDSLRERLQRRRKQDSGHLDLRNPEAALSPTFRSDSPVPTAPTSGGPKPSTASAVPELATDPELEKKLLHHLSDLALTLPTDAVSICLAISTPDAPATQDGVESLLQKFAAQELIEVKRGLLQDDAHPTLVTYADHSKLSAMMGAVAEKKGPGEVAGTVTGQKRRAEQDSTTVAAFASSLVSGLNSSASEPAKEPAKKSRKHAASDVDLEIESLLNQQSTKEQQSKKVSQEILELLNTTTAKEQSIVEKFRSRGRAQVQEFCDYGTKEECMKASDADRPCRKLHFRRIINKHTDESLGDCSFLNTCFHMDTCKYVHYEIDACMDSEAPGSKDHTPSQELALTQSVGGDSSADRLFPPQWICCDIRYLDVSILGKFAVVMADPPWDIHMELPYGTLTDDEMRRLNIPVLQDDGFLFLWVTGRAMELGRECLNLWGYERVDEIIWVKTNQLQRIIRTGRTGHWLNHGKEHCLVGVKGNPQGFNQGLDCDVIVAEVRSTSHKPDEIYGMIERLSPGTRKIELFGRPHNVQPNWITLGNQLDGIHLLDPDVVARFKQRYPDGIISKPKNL
Sequence of METTL3/METTL14 (Q9HCE5 whole entry partner, species assumed): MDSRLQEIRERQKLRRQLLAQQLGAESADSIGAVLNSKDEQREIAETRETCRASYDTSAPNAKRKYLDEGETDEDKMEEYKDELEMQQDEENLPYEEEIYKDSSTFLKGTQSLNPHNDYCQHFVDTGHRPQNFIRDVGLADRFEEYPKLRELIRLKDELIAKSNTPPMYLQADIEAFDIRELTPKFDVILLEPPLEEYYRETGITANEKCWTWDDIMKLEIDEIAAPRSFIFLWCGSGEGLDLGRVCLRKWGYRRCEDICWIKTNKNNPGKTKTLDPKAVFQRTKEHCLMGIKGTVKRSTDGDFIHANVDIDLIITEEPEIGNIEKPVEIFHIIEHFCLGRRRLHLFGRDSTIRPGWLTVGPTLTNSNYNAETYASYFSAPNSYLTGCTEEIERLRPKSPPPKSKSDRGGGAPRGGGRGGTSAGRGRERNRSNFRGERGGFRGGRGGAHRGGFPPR
Summary of the method: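 Tritium transfer from ³H-SAM (100 nM) to biotinylated RNA (100 nM) captured on streptavidin flashplates and counted by scintillation. Enzyme complex (2.5 nM) with compound, 5 min preincubation, 30 min reaction at ambient temperature, HEPES pH 7.5 buffer, stopped by excess unlabeled SAM.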
In the case of Nc1cc(C2CC2)nc2cc(OC[C@H]3O[C@@H](n4cc(Br)c5c(N)ncnc54)[C@@H](F)[C@@H]3O)ccc12 [I-14], the IC50 is reported as 10 to 100 nM.
CNc1ccc2ccc(CC[C@H]3C[C@@H](n4ccc5c(N)ncnc54)[C@H](O)[C@@H]3O)cc2n1 [I-123] was tested, and the IC50 was < 10 nM.
For Nc1ncnc2c1c(CO)cn2[C@@H]1O[C@H](COc2ccc3ccc(N4CCC4)nc3c2)[C@@H](O)[C@@H]1F [I-163], the IC50 was < 10 nM.
For Nc1ncnc2c1ccn2[C@H]1C[C@H](O)[C@@H](COc2ccc3ccc(N4CCC4)nc3c2)O1 [I-165], the IC50 was < 10 nM.
Compound Nc1ncnc2c1ccn2[C@H]1C[C@H](O)[C@@H](COc2ccc3ccc(NC4CC4)nc3c2)O1 [I-180] has an IC50 of 10 to 100 nM.

These compounds were tested against PRMT5-MEP50 (Homo sapiens, UniProt O14744) (assay: PRMT5 Assay (PRMT5 biochemical assay)). Conditions: PRMT5 biochemical assay; read-out: PRMT5 IC50.
Sequence of PRMT5-MEP50 (O14744 whole entry): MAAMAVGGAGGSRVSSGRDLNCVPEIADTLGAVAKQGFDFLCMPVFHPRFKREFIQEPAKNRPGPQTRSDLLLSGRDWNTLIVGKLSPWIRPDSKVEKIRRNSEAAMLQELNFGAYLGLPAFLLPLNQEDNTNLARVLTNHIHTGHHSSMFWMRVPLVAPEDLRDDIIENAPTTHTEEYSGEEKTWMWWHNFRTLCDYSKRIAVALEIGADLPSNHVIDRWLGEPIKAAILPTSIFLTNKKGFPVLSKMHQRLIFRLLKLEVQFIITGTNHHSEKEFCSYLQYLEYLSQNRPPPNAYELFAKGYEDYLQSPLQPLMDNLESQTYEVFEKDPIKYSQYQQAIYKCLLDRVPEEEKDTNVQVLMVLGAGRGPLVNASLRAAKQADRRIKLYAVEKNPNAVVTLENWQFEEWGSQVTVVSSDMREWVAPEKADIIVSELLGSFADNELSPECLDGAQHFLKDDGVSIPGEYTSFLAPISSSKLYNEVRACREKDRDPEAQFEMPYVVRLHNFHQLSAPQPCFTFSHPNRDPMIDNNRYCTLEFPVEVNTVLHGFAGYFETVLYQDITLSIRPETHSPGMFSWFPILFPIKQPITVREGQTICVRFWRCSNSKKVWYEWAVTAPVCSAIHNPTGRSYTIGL
Sequence of PRMT5-MEP50 (Q9BQA1 whole entry partner): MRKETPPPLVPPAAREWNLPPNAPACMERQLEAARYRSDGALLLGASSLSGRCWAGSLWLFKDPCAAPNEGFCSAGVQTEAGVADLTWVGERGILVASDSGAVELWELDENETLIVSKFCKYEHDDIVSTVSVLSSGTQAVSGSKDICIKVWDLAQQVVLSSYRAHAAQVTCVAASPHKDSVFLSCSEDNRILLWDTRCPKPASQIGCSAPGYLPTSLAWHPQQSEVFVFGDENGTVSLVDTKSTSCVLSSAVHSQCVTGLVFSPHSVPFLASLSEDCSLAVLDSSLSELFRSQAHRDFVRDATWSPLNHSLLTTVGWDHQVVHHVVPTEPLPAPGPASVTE
Summary of the method: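 Radiometric methyltransferase read-out: after 60 min reaction, excess unlabelled SAM (15 μM) stops turnover and biotinylated H4 peptide (100 nM) carrying 3H-methyl from 250 nM 3H-SAM is captured on streptavidin flashplates (2 h, 25° C) for scintillation counting. Enzyme, 2.5 nM PRMT5-MEP50, was preincubated 5 min with compound in pH 8.0 Tris buffer with DTT and Tween.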
Work on Nc1cc(C2CC2)nc2cc(OC[C@H]3O[C@@H](n4cc(Br)c5c(N)ncnc54)[C@@H](F)[C@@H]3O)ccc12 [I-14] yielded an IC50 of 100 to 1000 nM.
For CNc1ccc2ccc(CC[C@H]3C[C@@H](n4ccc5c(N)ncnc54)[C@H](O)[C@@H]3O)cc2n1 [I-123], the IC50 was < 10 nM.
For Nc1ncnc2c1c(CO)cn2[C@@H]1O[C@H](COc2ccc3ccc(N4CCC4)nc3c2)[C@@H](O)[C@@H]1F [I-163], the IC50 was > 1000 nM.
Nc1ncnc2c1ccn2[C@H]1C[C@H](O)[C@@H](COc2ccc3ccc(N4CCC4)nc3c2)O1 [I-165] was tested, and the IC50 was > 1000 nM.
In the case of Nc1ncnc2c1ccn2[C@H]1C[C@H](O)[C@@H](COc2ccc3ccc(NC4CC4)nc3c2)O1 [I-180], the IC50 is reported as 100 to 1000 nM.

These compounds were tested on MOLM-13 cells (assay: MOLM-13 48 Hour Cell Proliferation Assay). Conditions: Homo sapiens.
Assay type: cell-based
Method: MOLM-13 (DSMZ) cells were seeded at 1000 cells per well in a volume of 44 μL in a Falcon 384-well tissue culture treated clear bottom microplate in RPMI 1640 media containing 10% fetal bovine serum using a Multidrop Combi (ThermoFisher Scientific). Cells were incubated overnight at 37° C. in a humidified tissue culture incubator. The Mosquito® HTS Liquid Handler was used to make a compound/media intermediate plate by aliquoting 1 μL of compound from the initial compound dilution plate (concentrations ranging from 10.0 mM to 38.0 nM in 100% DMSO) into a V bottom 384-well screen matrix plate containing 49 μL of media containing the appropriate serum (50-fold dilution, 2% DMSO). The Apricot liquid handling system was used to transfer 6.2 μL compounds from the intermediate plate into the Falcon 384-well tissue culture plate containing 44 μL cells (10-point, 4-fold dilution spanning concentrations 25.0 μM to […], 0.25% DMSO final), and placed in a humidified tissue culture incubator at 37° C. After 48 hours, 25 μL of Cell Titer-Glo reagent (Promega) was added to each well using a Multidrop Combi. The plate was protected from light and placed on an IKA plate shaker for at 300 rpm for 10 minutes at room temperature. The plate was read on an EnVision plate reader (Perkin Elmer) using the Ultra Sensitive Luminescence protocol. Data analysis was performed by normalizing the raw luminescence units to an average of the positive control values for staurosporine (100% cell death) and the negative control values for DMSO (0% cell death). An IC50 was calculated using a 4-parameter logistic nonlinear regression model in GraphPad Prism.
For CNc1ccc2ccc(CC[C@H]3C[C@@H](n4ccc5c(N)ncnc54)[C@H](O)[C@@H]3O)cc2n1 [I-123], the IC50 was > 10000 nM.
Nc1ncnc2c1c(CO)cn2[C@@H]1O[C@H](COc2ccc3ccc(N4CCC4)nc3c2)[C@@H](O)[C@@H]1F [I-163] was tested, and the IC50 was 1000 to 10000 nM.
Nc1ncnc2c1ccn2[C@H]1C[C@H](O)[C@@H](COc2ccc3ccc(N4CCC4)nc3c2)O1 [I-165] was tested, and the IC50 was > 10000 nM.
In the case of Nc1ncnc2c1ccn2[C@H]1C[C@H](O)[C@@H](COc2ccc3ccc(NC4CC4)nc3c2)O1 [I-180], the IC50 is reported as > 10000 nM.

Each compound was assayed against T1, METTL16 (Homo sapiens, UniProt Q86W50) (assay: METTL16 Assay (METTL16 biochemical assay)). Conditions: read-out: METTL16 IC50.
T1 sequence (Q86W50 1-562): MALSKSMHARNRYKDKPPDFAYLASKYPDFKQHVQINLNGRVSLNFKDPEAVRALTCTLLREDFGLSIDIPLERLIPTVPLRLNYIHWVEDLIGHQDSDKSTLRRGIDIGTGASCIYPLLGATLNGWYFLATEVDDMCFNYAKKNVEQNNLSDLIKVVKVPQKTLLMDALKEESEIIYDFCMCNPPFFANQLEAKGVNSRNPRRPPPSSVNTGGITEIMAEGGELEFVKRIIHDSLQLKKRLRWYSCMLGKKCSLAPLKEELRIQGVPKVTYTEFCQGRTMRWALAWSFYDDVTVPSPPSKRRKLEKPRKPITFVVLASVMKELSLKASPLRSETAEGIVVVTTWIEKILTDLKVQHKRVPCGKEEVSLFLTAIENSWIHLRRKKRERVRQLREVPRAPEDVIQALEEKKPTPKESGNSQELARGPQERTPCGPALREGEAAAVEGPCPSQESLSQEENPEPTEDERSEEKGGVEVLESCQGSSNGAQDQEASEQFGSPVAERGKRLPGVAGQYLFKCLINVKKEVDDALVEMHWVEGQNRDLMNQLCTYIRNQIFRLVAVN
Method: Assays were performed in a 25 μl-volume in 384-well V-bottom polypropylene microplates (Greiner Bio-One, cat. No. 781280) at ambient temperature. Optimized 1× assay buffer was 20 mM HEPES pH 7.5, 50 mM KCl, 1 mM DTT, 0.01% Tween, 0.01% BSG, 0.004 U/μl RNAseOUT (cat. No. 10777019, ThermoFisher Scientific, Waltham, Mass.). For compound screening METTL16 (final concentration, f.c.=100 nM) was added using a Multidrop Combi (ThermoFisher Scientific, Waltham, Mass.) and preincubated for 5 min. Reactions were started by adding 3′ biotinylated RNA ([…]-biotin) (f.c.=50 nM), 3H-SAM (f.c.=200 nM) and non-radiolabeled SAM (f.c.=800 nM) substrates. Reactions proceeded for 20 minutes and were quenched with excess non-radioactive SAM (f.c.=100 μM). The reactions were then transferred to streptavidin-coated flashplates and incubated for 2 hours at 25° C. Following two washing cycles with 0.1% Tween-20, the plates were sealed and read on a TopCount (PerkinElmer, Waltham, Mass.) plate-based scintillation counter. For determination of kinetic parameters, reaction times were optimized so that measurements were taken during the initial velocity phase of the reaction.
In the case of Nc1cc(C2CC2)nc2cc(OC[C@H]3O[C@@H](n4cc(Br)c5c(N)ncnc54)[C@@H](F)[C@@H]3O)ccc12 [I-14], the IC50 is reported as > 1000 nM.

These compounds were tested against METTL1/WDR4 (Homo sapiens, UniProt Q9UBP6) (assay: METTL1 Assay (METTL1 biochemical assay)). Conditions: read-out: METTL1 IC50; METTL1 biochemical assay.
Sequence of METTL1/WDR4 (Q9UBP6 whole entry, species assumed): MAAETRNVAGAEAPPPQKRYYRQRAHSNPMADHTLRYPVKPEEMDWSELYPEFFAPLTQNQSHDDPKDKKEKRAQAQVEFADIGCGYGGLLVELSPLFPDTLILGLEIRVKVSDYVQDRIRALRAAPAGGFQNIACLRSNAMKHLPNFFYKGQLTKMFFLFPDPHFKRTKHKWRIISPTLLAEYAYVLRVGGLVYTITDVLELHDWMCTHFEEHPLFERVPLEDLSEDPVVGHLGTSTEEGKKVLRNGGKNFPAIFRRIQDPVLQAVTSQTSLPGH
Sequence of METTL1/WDR4 (P57081 whole entry partner, species assumed): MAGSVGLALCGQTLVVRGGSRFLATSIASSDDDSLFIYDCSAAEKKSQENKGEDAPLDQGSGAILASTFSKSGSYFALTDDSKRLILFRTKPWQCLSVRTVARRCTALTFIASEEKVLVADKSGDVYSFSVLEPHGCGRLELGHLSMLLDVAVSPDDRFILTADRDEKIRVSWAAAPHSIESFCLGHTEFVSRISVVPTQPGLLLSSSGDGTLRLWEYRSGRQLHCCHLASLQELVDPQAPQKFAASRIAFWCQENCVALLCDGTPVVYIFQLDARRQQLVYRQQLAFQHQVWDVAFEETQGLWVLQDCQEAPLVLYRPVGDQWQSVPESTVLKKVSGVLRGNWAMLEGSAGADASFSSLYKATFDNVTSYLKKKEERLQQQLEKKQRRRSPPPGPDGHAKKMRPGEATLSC
Summary of the method: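 Radiometric methyltransfer by METTL1/WDR4 (6.25 nM f.c., 5 min preincubation) at ambient temperature in HEPES pH 7.5, KCl, MgCl2, DTT; started with 25 nM 3′-biotinylated RNA and 60 nM 3H-SAM, run 20 min, quenched with 15 μM cold SAM. Product captured on streptavidin flashplates (2 h, 25° C), counted by scintillation.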
CNc1ccc2ccc(CC[C@H]3C[C@@H](n4ccc5c(N)ncnc54)[C@H](O)[C@@H]3O)cc2n1 [I-123] was tested, and the IC50 was > 1000 nM.
